Test results from patent US20140190726A1, “MIXTURE OF DECAFLUORO-2-METHYLBUTAN-3-ONE AND A CARRIER GAS AS A MEDIUM FOR ELECTRICAL INSULATION AND/OR FOR ELECTRIC ARC EXTINCTION IN MEDIUM-VOLTAGE” (SCHNEIDER ELECTRIC INDUSTRIES SAS, priority 2011, published 2014).

What was measured:
[1] = Saturation vapour pressure of C5K at minimum service temperatures; assay type: physicochemical; conditions: for PC5K pressure equivalent at 20° C. to the saturation vapour pressure: formula (II)
Method: Table I below indicates the saturation vapour pressures, noted PVSC5K, which C5K has at the temperatures of 0, −5, −10, −15, −20, −25, −30, −35 and −40° C., which are the minimum service temperatures typically found for medium- and high-voltage electrical devices.
It also indicates the pressure values, noted PC5K, which correspond at 20° C. to these saturation vapour pressures, and which are obtained by applying formula (II) above.

[2] = humans and animals; cited from earlier work

## O=C(C(F)(F)F)C(F)(C(F)(F)F)C(F)(F)F [C5K, decafluoro-2-methylbutan-3-one]
[1]; 0° C.
  PVSC5K saturation vapour pressure: 41.3 kPa
  PC5K pressure equivalent at 20° C. to the saturation vapour pressure: 44.3 kPa
[1]; −5° C.
  PVSC5K saturation vapour pressure: 33.6 kPa
  PC5K pressure equivalent at 20° C. to the saturation vapour pressure: 36.7 kPa
[1]; −10° C.
  PVSC5K saturation vapour pressure: 27.1 kPa
  PC5K pressure equivalent at 20° C. to the saturation vapour pressure: 30.2 kPa
[1]; −15° C.
  PVSC5K saturation vapour pressure: 21.7 kPa
  PC5K pressure equivalent at 20° C. to the saturation vapour pressure: 24.7 kPa
[1]; −20° C.
  PVSC5K saturation vapour pressure: 17.3 kPa
  PC5K pressure equivalent at 20° C. to the saturation vapour pressure: 20.0 kPa
[1]; −25° C.
  PVSC5K saturation vapour pressure: 13.6 kPa
  PC5K pressure equivalent at 20° C. to the saturation vapour pressure: 16.0 kPa
[1]; −30° C.
  PVSC5K saturation vapour pressure: 10.6 kPa
  PC5K pressure equivalent at 20° C. to the saturation vapour pressure: 12.7 kPa
[1]; −35° C.
  PVSC5K saturation vapour pressure: 8.1 kPa
  PC5K pressure equivalent at 20° C. to the saturation vapour pressure: 10.0 kPa
[1]; −40° C.
  PVSC5K saturation vapour pressure: 6.2 kPa
  PC5K pressure equivalent at 20° C. to the saturation vapour pressure: 7.8 kPa

## FS(F)(F)(F)(F)F [SF6, sulphur hexafluoride]
[2]
  Toxicity: non-toxic for humans and animals
